# Test results as given in article PMC8537445, “D-Peptide-Based Probe for CXCR4-Targeted Molecular Imaging and Radionuclide Therapy” (Pharmaceutics, 2021).
# Like-named read-outs stand apart in the source and are kept apart here. Positions of bridges follow the written chain, without caps; N, C: chain ends. Non-standard residues stand in square brackets, D forms with d. Residues, ends and D or L forms follow the SMILES beside them. Chains are numbered I, II in the order given. *: point of attachment. NOTA = O=C(O)CN1CCN(CC(=O)O)CCN(CC(=O)*)CC1
# How the values were obtained:
# [1] = Ex vivo biodistribution in U87.hCXCR4 tumor-bearing mice; parameters: species or system mouse; details: female, SCID (CB17.Cg-Prkdc<scid>Lyst<bg-J>/Crl), mouse, iv, total radioactivity, 75 min p.i., mean ± SD; for tissue to tissue ratio at 1.25 h: SUV ratio
# [2] = system: U87.hCXCR4 tumor-bearing mice; assay: as above; parameters: species or system mouse; details: 75 min p.i., mean ± SD
# [3] = co-injected AMD3100 5 mg/kg (157 nmol), n = 4
# [4] = co-injected DV1-k-(DV3) 7 nmol, n = 3
# [5] = co-injected DV1-k-(DV3) 14 nmol, n = 4
# [6] = co-injected DV1-k-(DV3) 24 nmol, n = 4
# [7] = SUV ratio, co-injected AMD3100 5 mg/kg (157 nmol), n = 4
# [8] = SUV ratio, co-injected DV1-k-(DV3) 7 nmol, n = 3
# [9] = SUV ratio, co-injected DV1-k-(DV3) 24 nmol, n = 4
compound,measurement,setting,value
CC(C)C[C@@H](N)C(=O)NCC(=O)N[C@H](C)C(=O)N[C@H](CO)C(=O)N[C@H](Cc1c[nH]c2ccccc12)C(=O)N[C@H](Cc1c[nH]cn1)C(=O)N[C@H](CCCNC(=N)N)C(=O)N1CCC[C@@H]1C(=O)N[C@H](CC(=O)O)C(=O)N[C@H](CCCCNC(=O)CN1CCN(CC(=O)O)CCN(CC(=O)O)CC1)C(=O)NCCCC[C@@H](NC(=O)[C@H]1CCCN1C(=O)[C@@H](CC(C)C)NC(=O)[C@H]1CCCN1C(=O)[C@@H](CCCNC(=N)N)NC(=O)[C@@H](CCCCN)NC(=O)[C@@H](CCC(N)=O)NC(=O)[C@@H](Cc1ccc(O)cc1)NC(=O)CNC(=O)[C@@H](CC(C)C)NC(=O)[C@@H](CS)NC(=O)[C@@H](CS)NC(=O)[C@@H](CCCCN)NC(=O)[C@@H](CC(=O)O)NC(=O)[C@H]1CCCN1C(=O)[C@@H](CCCNC(=N)N)NC(=O)[C@@H](Cc1c[nH]cn1)NC(=O)[C@@H](Cc1c[nH]c2ccccc12)NC(=O)[C@@H](CO)NC(=O)[C@@H](C)NC(=O)CNC(=O)[C@H](N)CC(C)C)C(=O)O [[^18F]AlF-NOTA-DV1-k-(DV3)] (I: H-[dL]G[dA][dS][dW][dH][dR][dP][dD][dK][dC][dC][dL]G[dY][dQ][dK][dR][dP][dL][dP][dK]-OH / II: H-[dL]G[dA][dS][dW][dH][dR][dP][dD][dK](NOTA); amide I:22-II:C),SUV at 1.25 h,"[1]; muscle, co-injected DV1-k-(DV3) 14 nmol, n = 4, read-out: muscle uptake",0.2 ± 0.1 SUV
same,SUV at 1.25 h,"[1]; muscle, co-injected DV1-k-(DV3) 24 nmol, n = 4, read-out: muscle uptake",0.2 ± 0.1 SUV
same,SUV at 1.25 h,"[1]; muscle, tracer alone (0 nmol), n = 4, read-out: muscle uptake",0.05 ± 0.02 SUV
same,SUV at 1.25 h,"[1]; muscle, with AMD3100 5 mg/kg (157 nmol), co-injected, co-injected AMD3100 5 mg/kg (157 nmol), n = 4, read-out: muscle uptake",0.1 ± 0.1 SUV
same,SUV at 1.25 h,"[1]; pancreas, co-injected AMD3100 5 mg/kg (157 nmol), n = 4, read-out: pancreas uptake",0.1 ± 0.1 SUV
same,SUV at 1.25 h,"[1]; pancreas, co-injected DV1-k-(DV3) 7 nmol, n = 3, read-out: pancreas uptake",0.1 ± 0.04 SUV
same,SUV at 1.25 h,"[1]; pancreas, co-injected DV1-k-(DV3) 14 nmol, n = 4, read-out: pancreas uptake",0.2 ± 0.1 SUV
same,SUV at 1.25 h,"[1]; pancreas, co-injected DV1-k-(DV3) 24 nmol, n = 4, read-out: pancreas uptake",0.1 ± 0.03 SUV
same,SUV at 1.25 h,"[1]; pancreas, tracer alone (0 nmol), n = 4, read-out: pancreas uptake",0.06 ± 0.02 SUV
same,SUV at 1.25 h,"[1]; spleen, co-injected AMD3100 5 mg/kg (157 nmol), n = 4, read-out: spleen uptake",0.5 ± 0.1 SUV
same,SUV at 1.25 h,"[1]; spleen, co-injected DV1-k-(DV3) 7 nmol, n = 3, read-out: spleen uptake",0.5 ± 0.1 SUV
same,SUV at 1.25 h,"[1]; spleen, co-injected DV1-k-(DV3) 14 nmol, n = 4, read-out: spleen uptake",0.6 ± 0.2 SUV
same,SUV at 1.25 h,"[1]; spleen, co-injected DV1-k-(DV3) 24 nmol, n = 4, read-out: spleen uptake",0.4 ± 0.1 SUV
same,SUV at 1.25 h,"[1]; spleen, tracer alone (0 nmol), n = 4, read-out: spleen uptake",2.5 ± 1 SUV
same,tissue to tissue ratio at 1.25 h,"[1]; tumor / blood, tracer alone (0 nmol), n = 4, read-out: tumor-to-blood ratio (t/blood)",4.6 ± 0.9
same,tissue to tissue ratio at 1.25 h,"[1]; tumor / liver, tracer alone (0 nmol), n = 4, read-out: tumor-to-liver ratio (t/liver)",0.1 ± 0.02
same,tissue to tissue ratio at 1.25 h,"[1]; tumor / liver, with unlabelled DV1-k-(DV3) 24 nmol, co-injected, co-injected DV1-k-(DV3) 24 nmol, n = 4, read-out: tumor-to-liver ratio (t/liver)",0.9 ± 0.2
same,tissue to tissue ratio at 1.25 h,"[1]; tumor / muscle, tracer alone (0 nmol), n = 4, read-out: tumor-to-muscle ratio (t/muscle)",12.4 ± 2.9
same,tissue to tissue ratio at 1.25 h,"[1]; tumor / muscle, with AMD3100 5 mg/kg (157 nmol), co-injected, co-injected AMD3100 5 mg/kg (157 nmol), n = 4, read-out: tumor-to-muscle ratio (t/muscle)",4.2 ± 1.1
same,tissue to tissue ratio at 1.25 h,"[1]; tumor / muscle, with unlabelled DV1-k-(DV3) 7 nmol, co-injected, co-injected DV1-k-(DV3) 7 nmol, n = 3, read-out: tumor-to-muscle ratio (t/muscle)",5.4 ± 2.2
same,tissue to tissue ratio at 1.25 h,"[1]; tumor / muscle, with unlabelled DV1-k-(DV3) 14 nmol, co-injected, co-injected DV1-k-(DV3) 14 nmol, n = 4, read-out: tumor-to-muscle ratio (t/muscle)",4.8 ± 2.1
same,tissue to tissue ratio at 1.25 h,"[1]; tumor / muscle, with unlabelled DV1-k-(DV3) 24 nmol, co-injected, co-injected DV1-k-(DV3) 24 nmol, n = 4, read-out: tumor-to-muscle ratio (t/muscle)",3 ± 0.4
same,SUV at 1.25 h,"[1]; tumor, tracer alone (0 nmol), n = 4, read-out: tumor uptake",0.6 ± 0.2 SUV
same,SUV at 1.25 h,"[1]; tumor, with AMD3100 5 mg/kg (157 nmol), co-injected, co-injected AMD3100 5 mg/kg (157 nmol), n = 4, read-out: tumor uptake",0.4 ± 0.2 SUV
same,SUV at 1.25 h,"[1]; tumor, with unlabelled DV1-k-(DV3) 7 nmol, co-injected, co-injected DV1-k-(DV3) 7 nmol, n = 3, read-out: tumor uptake",0.7 ± 0.1 SUV
same,SUV at 1.25 h,"[1]; tumor, with unlabelled DV1-k-(DV3) 14 nmol, co-injected, co-injected DV1-k-(DV3) 14 nmol, n = 4, read-out: tumor uptake",0.9 ± 0.3 SUV
same,SUV at 1.25 h,"[1]; tumor, with unlabelled DV1-k-(DV3) 24 nmol, co-injected, co-injected DV1-k-(DV3) 24 nmol, n = 4, read-out: tumor uptake",0.6 ± 0.2 SUV
same,tissue to tissue ratio at 1.25 h,"[1]; tumor/blood, co-injected DV1-k-(DV3) 7 nmol, n = 3, read-out: tumor-to-blood ratio (t/blood)",2.2 ± 0.9
same,tissue to tissue ratio at 1.25 h,"[1]; tumor/blood, co-injected DV1-k-(DV3) 14 nmol, n = 4, read-out: tumor-to-blood ratio (t/blood)",2 ± 0.9
same,tissue to tissue ratio at 1.25 h,"[1]; tumor/blood, co-injected DV1-k-(DV3) 24 nmol, n = 4, read-out: tumor-to-blood ratio (t/blood)",1.8 ± 0.3
same,tissue to tissue ratio at 1.25 h,"[1]; tumor/bone, co-injected AMD3100 5 mg/kg (157 nmol), n = 4, read-out: tumor-to-bone ratio (t/bone)",2.6 ± 0.7
same,tissue to tissue ratio at 1.25 h,"[1]; tumor/bone, co-injected DV1-k-(DV3) 7 nmol, n = 3, read-out: tumor-to-bone ratio (t/bone)",2.9 ± 0.3
same,tissue to tissue ratio at 1.25 h,"[1]; tumor/bone, co-injected DV1-k-(DV3) 14 nmol, n = 4, read-out: tumor-to-bone ratio (t/bone)",3.2 ± 0.4
same,tissue to tissue ratio at 1.25 h,"[1]; tumor/bone, co-injected DV1-k-(DV3) 24 nmol, n = 4, read-out: tumor-to-bone ratio (t/bone)",3.3 ± 0.5
same,tissue to tissue ratio at 1.25 h,"[1]; tumor/bone, tracer alone (0 nmol), n = 4, read-out: tumor-to-bone ratio (t/bone)",1.4 ± 0.5
same,tissue to tissue ratio at 1.25 h,"[1]; tumor/liver, co-injected AMD3100 5 mg/kg (157 nmol), n = 4, read-out: tumor-to-liver ratio (t/liver)",0.5 ± 0.2
same,tissue to tissue ratio at 1.25 h,"[1]; tumor/liver, co-injected DV1-k-(DV3) 7 nmol, n = 3, read-out: tumor-to-liver ratio (t/liver)",0.6 ± 0.1
same,tissue to tissue ratio at 1.25 h,"[1]; tumor/liver, co-injected DV1-k-(DV3) 14 nmol, n = 4, read-out: tumor-to-liver ratio (t/liver)",0.8 ± 0.2
same,tissue to tissue ratio at 1.25 h,"[1]; tumor/spleen, co-injected AMD3100 5 mg/kg (157 nmol), n = 4, read-out: tumor-to-spleen ratio (t/spleen)",0.7 ± 0.2
same,tissue to tissue ratio at 1.25 h,"[1]; tumor/spleen, co-injected DV1-k-(DV3) 7 nmol, n = 3, read-out: tumor-to-spleen ratio (t/spleen)",1.4 ± 0.1
same,tissue to tissue ratio at 1.25 h,"[1]; tumor/spleen, co-injected DV1-k-(DV3) 14 nmol, n = 4, read-out: tumor-to-spleen ratio (t/spleen)",1.4 ± 0.1
same,tissue to tissue ratio at 1.25 h,"[1]; tumor/spleen, co-injected DV1-k-(DV3) 24 nmol, n = 4, read-out: tumor-to-spleen ratio (t/spleen)",1.6 ± 0.3
same,tissue to tissue ratio at 1.25 h,"[1]; tumor/spleen, tracer alone (0 nmol), n = 4, read-out: tumor-to-spleen ratio (t/spleen)",0.3 ± 0.1
same,bone uptake,[2]; [3],0.1 ± 0.04 SUV
same,spleen uptake,[2]; [3],0.5 ± 0.1 SUV
same,bone uptake,"[2]; co-injected AMD3100 5 mg/kg (157 nmol), n = 4, listed as [18F]AlF-NOTA-DV1-k-(DV3)",0.1 ± 0.04 SUV
same,bone uptake,[2]; [4],0.2 ± 0.04 SUV
same,liver uptake,[2]; [4],1.2 ± 0.1 SUV
same,bone uptake,[2]; [5],0.3 ± 0.1 SUV
same,liver uptake,[2]; [5],1.2 ± 0.4 SUV
same,bone uptake,[2]; [6],0.2 ± 0.04 SUV
same,liver uptake,[2]; [6],0.7 ± 0.1 SUV
same,tumor-to-blood ratio (t/blood),[2]; [7],1.7 ± 0.5
same,tumor-to-liver ratio (t/liver),[2]; [7],0.5 ± 0.2
same,tumor-to-liver ratio (t/liver),[2]; [8],0.6 ± 0.1
same,tumor-to-muscle ratio (t/muscle),[2]; [8],5.4 ± 2.2
same,tumor-to-muscle ratio (t/muscle),"[2]; SUV ratio, co-injected DV1-k-(DV3) 14 nmol, n = 4",4.8 ± 2.1
same,tumor-to-liver ratio (t/liver),[2]; [9],0.9 ± 0.2
same,tumor-to-muscle ratio (t/muscle),[2]; [9],3.0 ± 0.4
